Structure (SMILES)	boiling point	melting point	log10 vapour pressure (mmHg)	log10 Koc (L/kg)	ready biodegradability	log10 Henry constant (atm·m³/mol)
FC(F)(F)C(F)(Cl)C(F)(F)Cl (stereo not drawn)	34.1 °C	–	–	–	–	–
CC(C)S(=O)(=O)n1c(N)nc2ccc(/C(=N/O)c3ccccc3)cc21	–	198 °C	–	–	–	–
CCCCCCCS	177 °C	-43 °C	0.116	–	–	–
CC(C)(O)CCSc1ccc(S(N)(=O)=O)cc1	–	140 °C	–	–	–	–
CCC(=O)N(C)C	174 °C	-45 °C	–	–	–	–
O=Cc1ccc(O)c(O)c1O	–	160 °C	–	–	–	–
CON(C)C(=O)Nc1ccc(Cl)c(Cl)c1	–	93 °C	-5.84	2.7	not readily biodegradable	–
CC1=CC[C@@H]2[C@H]3[C@@H](C(C)C)CC[C@]2(C)[C@@H]13	248 °C	–	–	–	–	–
CC(C)C[C@H](N)C(=O)O	–	293 °C	–	–	–	–
C=CCN(CC=C)CC=C	156 °C	–	0.561	–	not readily biodegradable	–
COc1cccc2c(=O)c3c(n(C)c12)O[C@@H](C(C)C)C3	–	119 °C	–	–	–	–
CCCCCCC(=O)CCC	206 °C	-9 °C	–	–	–	–
CCOC(=O)CN(C(=O)CCl)c1c(CC)cccc1CC	–	49.5 °C	–	2	–	–
CCCCCCCCF	142 °C	–	0.772	–	–	–
C#CC(C)(C)Cl	76 °C	-61 °C	–	–	–	–
COC(=O)c1cc(C)ccc1O	244 °C	-1 °C	–	–	–	–
CC1=CCOCC1	118 °C	–	–	–	–	–
CCCCCCCCCCCCCCC(C)O (stereo not drawn)	314 °C	44 °C	–	–	–	–
CCCCC(C)S (stereo not drawn)	142 °C	-147 °C	–	–	–	–
CC(=O)Oc1c(C(C)(C)C)cc([N+](=O)[O-])c(C)c1[N+](=O)[O-]	–	86.5 °C	–	–	–	–

Structure (SMILES)	boiling point	melting point	log10 vapour pressure (mmHg)	log10 Koc (L/kg)	ready biodegradability	log10 Henry constant (atm·m³/mol)
Cc1c2ccccc2nc2ccccc12	–	118 °C	–	–	–	–
CC(=O)Oc1cccc(O)c1	283 °C	–	–	–	–	–
CC(=O)[C@@]1(O)CC[C@H]2[C@@H]3CC[C@H]4C[C@@H](O)CC[C@]4(C)[C@H]3CC[C@@]21C	–	265 °C	–	–	–	–
O=C(Nc1ccc(O)cc1)c1ccccc1O	–	179 °C	–	–	–	–
CC1=CC(=O)CCC1(C)C	217 °C	–	–	–	–	–
CC(C)(C)C(C)(C)Cl	–	136 °C	–	–	–	–
Nc1cccc(S(=O)(=O)c2cccc(N)c2)c1	–	172 °C	–	–	not readily biodegradable	–
COC(=O)c1cc(C(=O)OC)c(C(=O)OC)cc1C(=O)OC	–	144 °C	–	–	–	–
Clc1ccc(-c2c(Cl)cc(Cl)cc2Cl)cc1	–	65 °C	–	–	–	–
CCCCCCCC/C=C\CCCCCCCC(=O)OCC(COC(=O)CCCCCCC/C=C\CCCCCCCC)OC(=O)CCCCCCC/C=C\CCCCCCCC	–	–	–	–	readily biodegradable	–
CN=C=S	119 °C	36 °C	0.549	0.97	not readily biodegradable	–
N#CC(=NO)c1ccccc1	–	129 °C	–	–	–	–
CC1=CC(=O)O[C@@]2(C1)C[C@H]1CC[C@@H]2CN1C	–	54.5 °C	–	–	–	–
O=C1CCCCCCCCCCCCCCO1	–	32 °C	–	–	–	–
CCC/C=C/CCCCCC	193 °C	-80.3 °C	–	–	–	–
N#Cc1cccc(O)c1	–	80 °C	–	–	–	–
CC(C)[C@H](C(=O)OC(C#N)c1cccc(Oc2ccccc2)c1)c1ccc(OC(F)F)cc1 (stereo partly drawn)	–	–	-8.06	5	–	–
c1ccc(CCc2ccccc2)cc1	284 °C	52.5 °C	-2.14	–	readily biodegradable	–
OC[C@@H](O)[C@@H](O)[C@H](O)[C@@H](O)CO	–	–	–	–	readily biodegradable	–
CC(C)CCCBr	145 °C	–	–	–	–	–

Structure (SMILES)	boiling point	melting point	log10 vapour pressure (mmHg)	log10 Koc (L/kg)	ready biodegradability	log10 Henry constant (atm·m³/mol)
O=C(C=Cc1ccccc1)NCCO	–	101 °C	–	–	–	–
COc1ccc(C(O)(c2cncnc2)C2CC2)cc1 (stereo not drawn)	–	110 °C	-6.7	2.08	–	-10.8
Nc1ncc2ncn(COCCO)c2n1	–	189 °C	–	–	–	–
C=Cc1ccncc1	–	–	0.23	1.18	not readily biodegradable	–
O=C(O)C(F)(F)C(F)(F)C(F)(F)C(F)(F)C(F)(F)C(F)(F)C(F)(F)F	189 °C	55 °C	-0.28	–	not readily biodegradable	–
O=C(NC(=O)c1ccccc1Cl)Nc1ccc(OC(F)(F)F)cc1	–	195 °C	-9.52	–	–	–
CCCCC(=O)Cl	109 °C	-110 °C	–	–	–	–
CCOC(=O)CNc1ccccc1	274 °C	58 °C	–	–	–	–
CC(O)CN(CCN(CC(C)O)CC(C)O)CC(C)O (stereo not drawn)	–	–	–	–	not readily biodegradable	–
CC(C)OC=O	68.2 °C	-80 °C	2.14	–	–	–
CC(C)(O)C#N	171 °C	-19 °C	-0.467	–	readily biodegradable	–
CCCCCCCN	156 °C	-18 °C	0.438	–	–	–
Brc1ccc(-c2ccc(Br)cc2)cc1	358 °C	164 °C	–	–	not readily biodegradable	–
CC(Cl)C(=O)O (stereo not drawn)	185 °C	–	–	–	–	–
CCC1(CC)C(=O)NC(=S)NC1=O	–	180 °C	–	–	–	–
O=C(Nc1ncc([N+](=O)[O-])s1)c1cccs1	–	256 °C	–	–	–	–
Cc1cccc(Nc2ccccc2)c1	316 °C	30 °C	-3.83	–	–	–
c1ccc(C2CO2)cc1 (stereo not drawn)	194 °C	-35.6 °C	-0.523	–	readily biodegradable	–
CCCCCCCCCCCCCCCCCCCCCCCCCCCCO	–	83.3 °C	–	–	readily biodegradable	–
FC(F)(F)c1ccccc1Cl	152 °C	-6 °C	0.706	–	–	–

— the OPERA property sets (Mansouri et al. 2018)
